Source: paper PMC7339578, “Multiple circulating alkaloids and saponins from intravenous Kang-Ai injection inhibit human cytochrome P450 and UDP-glucuronosyltransferase isozymes: potential drug–drug interactions” (Chinese Medicine, 2020)

Tests used:
[1] = tested on: UGT1A8; conditions: cited from earlier work
[2] = tested on: UGT2B7; design: method as in PMID 27916843; conditions: read-out: Ki towards UGT2B7; cited from earlier work
[3] = Protein binding assay (equilibrium dialysis); format: in vitro ADME, rat; conditions: rat plasma; equilibrium dialysis 24 h, 37 °C; 2 μmol/L alkaloids, 4 μmol/L saponins
Protocol: Binding of circulating alkaloids and saponins to rat plasma was measured by equilibrium dialysis using Spectra/Por 2 dialysis membranes (molecular weight cutoff, 12–14 kDa; Rancho Dominguez, CA, USA) as described. After equilibrating for 24 h at 55 rpm and 37 °C, the dialysate and the plasma were sampled for analysis. […] The concentrations of tested matrine, oxysophocarpine and oxymatrine were 2 μmol/L, while those of astragaloside IV, III, and ginsenosides Rh1, Rg2, Rg1, Rf, Re, Rd, Rc, Rb1, Rb2, notoginsenosides R1, R2, were 4 μmol/L. The unbound fraction (fu-plasma) in rat plasma was calculated as follow: fu-plasma = Cd/Cp × 100%, where the Cd and Cp values were the concentrations of each analyte in the dialysate sample and in the post-dialysis plasma sample, respectively.

[4] = Plasma pharmacokinetics in rats after a 30-min intravenous infusion of Kang-Ai injection; format: in vivo, Sprague–Dawley rats; conditions: rat plasma, 30-min iv infusion of Kang-Ai injection 6 mL/kg
Protocol: Specific pathogen free (SPF) grade male Sprague–Dawley rats (250 ± 20) g were provided by the Experimental Animal Center of Zhengzhou University (Zhengzhou, China). These rats were kept in a designated animal room at constant temperature (22 ± 2) °C and humidity (50 ± 20) % with 12 h of light/dark per day and free access to water and food. All protocols of animal experiments were approved in accordance with the Regulations of Experimental Animal Administration issued by the Ethics Review Committee for Animal Experimentation of Jinan University (Ethical Review NO. 20190301010). Prior to the experiments, the rats were fasted for 12 h but with free access to water. After study use, the rats were euthanized with CO2 gas.
The rats in this study all received a single 30-min intravenous infusion of Kang-Ai injection via the tail veins using TYD01-02 infusion pumps (Lead Fluid, Baoding, China). The dose was derived from the label daily dose of Kang-Ai injection (60 mL/person, once daily) according to dose normalization by body surface area. For plasma pharmacokinetic studies, the rats were randomly received a single intravenous 30 min-bolus dose at 6 mL/kg. Blood samples (100 μL) were collected from the rats’ external jugular veins into heparinized polypropylene tubes at 5, 15, 30, 45 min, and 1, 1.5, 2, 3, 4, 6, 8, 12 h. After gently shaking for 10 s, the blood samples were centrifuged at 13000 g for 10 min to yield plasma samples, which were kept frozen at − 80 °C until analysis.
Pharmacokinetic parameters were estimated by non-compartmental analysis using WinNonlin 6.3 software (Pharsight, NC, US). Data are presented as the mean ± SD (n = 3). The area under the concentration–time curve up to the last measured point in time (AUC0-t) was calculated using the trapezoidal rule. The total plasma clearance (CLtot, p) was calculated by dividing the compound dose by the AUC0-∞, and the distribution volume at steady state (VSS) was estimated by multiplying the CLtot, p by the mean residence time (MRT). The renal excretory clearance (CLR) and hepatobiliary (CLB) was determined by dividing the cumulative amount excreted into urine (Cum.Ae-U) and bile (Cum.Ae-B) by the plasma AUC0-∞, respectively. The fractions of dose excreted into urine (fe-U) and the fractions of dose excreted into bile (fe-B) were established using the relationship Cum.Ae-U/Dose and Cum.Ae-B/Dose, respectively. Mean differences between treatment and control groups were analyzed by two-tailed unpaired Student’s t test by Graphpad Prism V5 software (SanDiego, CA). The level of significance was set at p < 0.05 (∗), p < 0.01 (∗∗) or p < 0.001 (∗∗∗).

[5] = Stability tests of analytes in rat plasma QC samples; format: in vitro ADME; conditions: rat plasma
Protocol: […] The dilution integrity was investigated by analyzing six replicate samples with each analyte, and each analyte were diluted 10-fold with blank rat matrix. Furthermore, the diluted samples were analyzed using freshly prepared calibration curve to calculate RE and RSD, which should be no more than ± 15% as criterion.

[6] = Biliary (hepatobiliary) excretion in rats after a 30-min infusion of Kang-Ai injection; format: in vivo, Sprague–Dawley rats; conditions: rat bile 0–12 h; Kang-Ai injection 6 mL/kg iv
Outline: (§1)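 Urine collected in metabolic cages at 0–4, 4–8, 8–12 h and bile at 0–3, 3–6, 6–9, 9–12 h after infusion start, weighed and frozen at −80 °C. Non-compartmental analysis; CLR and CLB as cumulative urinary or biliary amount divided by plasma AUC0-∞, fe-U and fe-B as cumulative amount/dose; mean ± SD (n = 3).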

[7] = Urinary (renal) excretion in rats after a 30-min infusion of Kang-Ai injection; format: in vivo, Sprague–Dawley rats; conditions: rat urine 0–12 h; Kang-Ai injection 6 mL/kg iv
Outline: as §1

For `CC(C)(O)[C@@H]1CC[C@](C)([C@H]2[C@@H](O)C[C@@]3(C)[C@@H]4C[C@H](O)[C@H]5C(C)(C)[C@@H](O)CC[C@@]56C[C@@]46CC[C@]23C)O1` [cycloastragenol], the Ki [1] is given as 0.034 µM and the Ki [2] is given as 21 µM.
With `CC(C)=CCC[C@](C)(O[C@@H]1O[C@H](CO)[C@@H](O)[C@H](O)[C@H]1O)[C@H]1CC[C@]2(C)[C@@H]1[C@H](O)C[C@@H]1[C@@]3(C)CC[C@H](O)C(C)(C)[C@@H]3[C@@H](O[C@@H]3O[C@H](CO)[C@@H](O)[C@H](O)[C@H]3O[C@@H]3OC[C@@H](O)[C@H](O)[C@H]3O)C[C@]12C` [Compound C8, Notoginsenoside R1] the “fu-plasma (unbound fraction)” value [3] was 90.36 ± 4.22%, the t1/2 [4] was 45 ± 9.6 min and the Cmax ([4]; read-out: Cmax) was 121 ± 21.1 nM. For the same molecule, the “At -80 °C for 48 h, Mean±SD” value ([5]; nominal conc. 20 nM) was 20.74 ± 0.96 nM, the “At -80 °C for 48 h, RE” value ([5]; nominal conc. 20 nM) was 8.27% and the “Extracted samples at 8 °C for 18 h, Mean±SD” value (from here on “Extracted samples … Mean±SD”) ([5]; nominal conc. 20 nM) was 19.67 ± 2.39 nM. For the same molecule, the “Extracted samples at 8 °C for 18 h, RE” value ([5]; nominal conc. 20 nM) was -11.85%, the “Short-term stability at room temperature for 6 h, Mean±SD” value (“Short-term stability … Mean±SD” below) ([5]; nominal conc. 20 nM) was 17.74 ± 0.16 nM and the “Short-term stability at room temperature for 6 h, RE” value (“Short-term stability … for 6 h, RE” below) ([5]; nominal conc. 20 nM) was -12.08%. The “Three freeze-thaw cycles (-80 °C ↔ 23 °C), Mean±SD” value (from here on “Three freeze-thaw cycles … Mean±SD”) ([5]; nominal conc. 20 nM) was 21.51 ± 1.68 nM, the “Three freeze-thaw cycles (-80 °C ↔ 23 °C), RE” value ([5]; nominal conc. 20 nM) was 12.79% and the “At -80 °C for 48 h, Mean±SD” value ([5]; nominal conc. 100 nM) was 98.21 ± 9.98 nM. For the same molecule, the “At -80 °C for 48 h, RE” value ([5]; nominal conc. 100 nM) was 9.58%, the “Extracted samples … Mean±SD” value ([5]; nominal conc. 100 nM) was 97.66 ± 12.82 nM and the “Extracted samples at 8 °C for 18 h, RE” value ([5]; nominal conc. 100 nM) was 12.46%. For the same molecule, the “Short-term stability … Mean±SD” value ([5]; nominal conc. 100 nM) was 92.24 ± 4.21 nM, the “Short-term stability … for 6 h, RE” value ([5]; nominal conc. 100 nM) was -10.97% and the “Three freeze-thaw cycles … Mean±SD” value ([5]; nominal conc. 100 nM) was 97.29 ± 6.47 nM. The “Three freeze-thaw cycles (-80 °C ↔ 23 °C), RE” value ([5]; nominal conc. 100 nM) was -10.11%, the “At -80 °C for 48 h, Mean±SD” value ([5]; nominal conc. 400 nM) was 413.01 ± 31.69 nM and the “At -80 °C for 48 h, RE” value ([5]; nominal conc. 400 nM) was 11.76%. The “Extracted samples … Mean±SD” value ([5]; nominal conc. 400 nM) was 402.54 ± 33.33 nM, the “Extracted samples at 8 °C for 18 h, RE” value ([5]; nominal conc. 400 nM) was 9.82% and the “Short-term stability … Mean±SD” value ([5]; nominal conc. 400 nM) was 357.29 ± 9.94 nM. For the same molecule, the “Short-term stability … for 6 h, RE” value ([5]; nominal conc. 400 nM) was -13.09%, the “Three freeze-thaw cycles … Mean±SD” value ([5]; nominal conc. 400 nM) was 379.04 ± 38.85 nM and the “Three freeze-thaw cycles (-80 °C ↔ 23 °C), RE” value ([5]; nominal conc. 400 nM) was -14.53%. For the same molecule, the “fe-B,0–12h (fraction of dose excreted into bile)” value [6] was 12.00 ± 1.57% and the “fe-U,0–12h (fraction of dose excreted into urine)” value [7] was 72.12 ± 13.01%.
